Data on one compound can be found in ChEMBL document CHEMBL3611986, “Reversal of P-gp and BCRP-mediated MDR by tariquidar derivatives” (Eur J Med Chem, 2015).

T1 sequence (P08183 whole entry): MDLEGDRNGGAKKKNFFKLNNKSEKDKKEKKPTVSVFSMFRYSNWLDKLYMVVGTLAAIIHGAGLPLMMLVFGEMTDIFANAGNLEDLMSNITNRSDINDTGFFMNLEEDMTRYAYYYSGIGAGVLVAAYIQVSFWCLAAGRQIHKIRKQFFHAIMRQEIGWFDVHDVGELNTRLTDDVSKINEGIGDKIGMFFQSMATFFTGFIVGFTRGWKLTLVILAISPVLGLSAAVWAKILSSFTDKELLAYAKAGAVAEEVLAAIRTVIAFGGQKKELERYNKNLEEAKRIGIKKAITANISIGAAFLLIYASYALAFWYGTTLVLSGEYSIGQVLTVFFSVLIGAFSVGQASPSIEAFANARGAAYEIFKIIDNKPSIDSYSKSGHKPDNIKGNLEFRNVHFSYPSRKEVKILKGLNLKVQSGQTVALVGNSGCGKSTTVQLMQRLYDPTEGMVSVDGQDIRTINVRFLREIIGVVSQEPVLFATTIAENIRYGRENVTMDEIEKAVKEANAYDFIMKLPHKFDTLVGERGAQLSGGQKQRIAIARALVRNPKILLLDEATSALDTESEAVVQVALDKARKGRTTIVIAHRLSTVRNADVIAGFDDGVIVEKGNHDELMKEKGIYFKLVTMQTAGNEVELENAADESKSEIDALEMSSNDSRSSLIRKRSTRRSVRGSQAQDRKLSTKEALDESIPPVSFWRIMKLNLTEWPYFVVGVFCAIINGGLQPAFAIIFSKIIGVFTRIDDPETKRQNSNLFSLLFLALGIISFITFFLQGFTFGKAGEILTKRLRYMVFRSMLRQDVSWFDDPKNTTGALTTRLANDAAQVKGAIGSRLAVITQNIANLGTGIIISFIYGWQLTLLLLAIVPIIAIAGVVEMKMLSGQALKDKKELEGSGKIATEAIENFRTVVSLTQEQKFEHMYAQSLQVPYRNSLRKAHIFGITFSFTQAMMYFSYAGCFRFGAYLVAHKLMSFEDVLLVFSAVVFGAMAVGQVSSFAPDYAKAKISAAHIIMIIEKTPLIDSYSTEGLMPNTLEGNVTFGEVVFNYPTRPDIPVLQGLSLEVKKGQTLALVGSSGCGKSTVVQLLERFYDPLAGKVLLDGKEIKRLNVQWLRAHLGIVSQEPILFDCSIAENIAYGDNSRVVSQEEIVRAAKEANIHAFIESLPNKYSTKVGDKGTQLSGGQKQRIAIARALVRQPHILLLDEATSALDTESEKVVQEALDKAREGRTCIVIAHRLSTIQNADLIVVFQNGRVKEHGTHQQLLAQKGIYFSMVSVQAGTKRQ

The subject of the first data set is HCT-116. As to the kind of experiment: Cytotoxicity against human HCT116 cells assessed as cell viability after 48 hrs by MTT assay. The format is cell-based. To be noted: HCT-116, 48 h. On the technique in general: Formazan colour is commonly taken as a measure of viable cells.
What is called IC50 is the midpoint of a concentration-inhibition curve. `COc1cc2c(cc1OC)CN(CCc1ccc(NC(=O)c3cc(OC)c(OC)cc3NC(=O)c3cnc4ccccc4c3)cc1)CC2` [TARIQUIDAR]: the half-inhibitory concentration (IC50) is 12.5 µM.

Another data set has as its system SW-620. Description: Cytotoxicity against human SW620 cells assessed as cell viability after 48 hrs by MTT assay. It counts as cell-based. Particulars: SW-620, 48 h; call rule not given here.
Turning to `COc1cc2c(cc1OC)CN(CCc1ccc(NC(=O)c3cc(OC)c(OC)cc3NC(=O)c3cnc4ccccc4c3)cc1)CC2` [TARIQUIDAR], the IC50 worked out at 25 µM.

Test system in a further data set: not listed separately
As to the kind of experiment: Cytotoxicity against human SW620/AD300 cells assessed as cell viability after 48 hrs by MTT assay. The format is cell-based. Particulars: SW-620, 48 h.
As for `COc1cc2c(cc1OC)CN(CCc1ccc(NC(=O)c3cc(OC)c(OC)cc3NC(=O)c3cnc4ccccc4c3)cc1)CC2` [TARIQUIDAR], the IC50 was 25 µM.

Test system in another data set: not listed separately
As to the kind of experiment: Cytotoxicity against human CCD-18Co cells assessed as cell viability after 48 hrs by MTT assay. It counts as cell-based.
Details: not given
As to `COc1cc2c(cc1OC)CN(CCc1ccc(NC(=O)c3cc(OC)c(OC)cc3NC(=O)c3cnc4ccccc4c3)cc1)CC2` [TARIQUIDAR], the IC50 worked out at 25 µM.

Test system in the next data set: not listed separately
As to the kind of experiment: Cytotoxicity against human HFE cells assessed as cell viability after 72 hrs by MTT assay. It counts as cell-based.
Details: not given
In the case of `COc1cc2c(cc1OC)CN(CCc1ccc(NC(=O)c3cc(OC)c(OC)cc3NC(=O)c3cnc4ccccc4c3)cc1)CC2` [TARIQUIDAR], the IC50 came out at 1.28 µM.

In another data set the test system is Hepatocyte. As to the kind of experiment: Cytotoxicity against rat hepatocytes assessed as cell viability after 72 hrs by MTT assay. It counts as cell-based. To be noted: Rattus norvegicus, Hepatocyte.
As to `COc1cc2c(cc1OC)CN(CCc1ccc(NC(=O)c3cc(OC)c(OC)cc3NC(=O)c3cnc4ccccc4c3)cc1)CC2` [TARIQUIDAR], the IC50 came to 25 µM.

For another data set, the target named is Multidrug resistance-associated protein 1 (Homo sapiens, UniProt P33527). Description: Inhibition of MRP1 (unknown origin)-mediated calcein-AM efflux expressed in HEK293/MRP1 cells at 0.5 uM after 1 hr by flow cytometry. The format is cell-based. Particulars: hek293/mrp1, 1 h.
Multidrug resistance-associated protein 1, sequence (P33527 whole entry): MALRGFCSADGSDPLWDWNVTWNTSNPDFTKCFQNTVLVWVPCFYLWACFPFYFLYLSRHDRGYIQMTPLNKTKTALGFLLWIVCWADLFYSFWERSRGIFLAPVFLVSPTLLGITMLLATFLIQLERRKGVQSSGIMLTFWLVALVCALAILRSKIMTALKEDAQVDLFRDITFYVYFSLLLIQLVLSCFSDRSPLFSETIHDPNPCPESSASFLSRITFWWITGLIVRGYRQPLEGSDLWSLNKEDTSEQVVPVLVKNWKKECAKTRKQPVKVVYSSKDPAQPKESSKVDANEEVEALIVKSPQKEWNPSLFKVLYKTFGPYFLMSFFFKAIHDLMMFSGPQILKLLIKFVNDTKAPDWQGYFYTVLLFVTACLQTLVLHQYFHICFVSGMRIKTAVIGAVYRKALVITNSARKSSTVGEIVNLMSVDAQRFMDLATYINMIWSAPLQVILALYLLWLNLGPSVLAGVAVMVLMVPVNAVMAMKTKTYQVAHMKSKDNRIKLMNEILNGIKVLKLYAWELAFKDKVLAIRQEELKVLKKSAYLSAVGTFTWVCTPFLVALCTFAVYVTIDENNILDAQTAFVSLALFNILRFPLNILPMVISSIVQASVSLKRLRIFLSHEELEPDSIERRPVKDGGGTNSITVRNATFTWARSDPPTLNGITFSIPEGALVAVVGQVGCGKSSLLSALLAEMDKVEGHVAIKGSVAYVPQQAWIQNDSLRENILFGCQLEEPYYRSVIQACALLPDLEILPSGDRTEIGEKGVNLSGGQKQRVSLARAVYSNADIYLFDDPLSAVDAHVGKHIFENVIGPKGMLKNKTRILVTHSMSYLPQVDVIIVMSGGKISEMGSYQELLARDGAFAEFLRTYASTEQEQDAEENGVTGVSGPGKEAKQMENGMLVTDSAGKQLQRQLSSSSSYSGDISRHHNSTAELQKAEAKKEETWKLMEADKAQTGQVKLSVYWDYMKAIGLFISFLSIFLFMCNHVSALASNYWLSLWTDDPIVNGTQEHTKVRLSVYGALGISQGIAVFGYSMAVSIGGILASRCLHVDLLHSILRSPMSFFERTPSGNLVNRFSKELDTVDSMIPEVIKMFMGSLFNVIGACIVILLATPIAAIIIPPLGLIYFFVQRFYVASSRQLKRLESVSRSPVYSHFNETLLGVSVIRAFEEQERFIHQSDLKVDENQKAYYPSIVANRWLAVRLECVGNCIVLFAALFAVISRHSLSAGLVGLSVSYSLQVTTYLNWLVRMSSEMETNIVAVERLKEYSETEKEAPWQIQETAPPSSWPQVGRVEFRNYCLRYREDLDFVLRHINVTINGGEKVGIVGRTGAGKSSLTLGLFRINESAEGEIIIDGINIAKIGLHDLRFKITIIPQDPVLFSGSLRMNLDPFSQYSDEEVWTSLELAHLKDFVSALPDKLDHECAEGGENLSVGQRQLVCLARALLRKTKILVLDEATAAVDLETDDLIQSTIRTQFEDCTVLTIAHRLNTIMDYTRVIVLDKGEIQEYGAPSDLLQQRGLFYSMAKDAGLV
As to `COc1cc2c(cc1OC)CN(CCc1ccc(NC(=O)c3cc(OC)c(OC)cc3NC(=O)c3cnc4ccccc4c3)cc1)CC2` [TARIQUIDAR], the “inhibition (INH)” value was “Not Active”.

Test system in another data set: not listed separately
As to the kind of experiment: Potentiation of paclitaxel-induced cytotoxicity against human LCC6 cells at 200 nM after 72 hrs by SRB assay relative to control.
Details: not given
It counts as functional.
`COc1cc2c(cc1OC)CN(CCc1ccc(NC(=O)c3cc(OC)c(OC)cc3NC(=O)c3cnc4ccccc4c3)cc1)CC2` [TARIQUIDAR]: the “fold change (FC)” value is on record as 1.1.

A further data set has as its target T1, ATP-dependent translocase ABCB1 (Homo sapiens, UniProt P08183). Description: Inhibition of p-glycoprotein in human LCC6/MDR cells assessed as increase of paclitaxel-induced cytotoxicity at 200 nM after 72 hrs by SRB assay relative to control. To be noted: 0.2 µM. It counts as cell-based. In general terms: The SRB assay estimates cell density from bound dye.
Regarding `COc1cc2c(cc1OC)CN(CCc1ccc(NC(=O)c3cc(OC)c(OC)cc3NC(=O)c3cnc4ccccc4c3)cc1)CC2` [TARIQUIDAR], the “fold change (FC)” value was 1.9.

Another data set concerns MCF7. As to the kind of experiment: Potentiation of mitoxantrone-induced cytotoxicity against human MCF7 cells at 200 nM after 72 hrs by SRB assay relative to control. It counts as functional.
Details: not given
With `COc1cc2c(cc1OC)CN(CCc1ccc(NC(=O)c3cc(OC)c(OC)cc3NC(=O)c3cnc4ccccc4c3)cc1)CC2` [TARIQUIDAR], the “fold change (FC)” value is given as 0.8.

The target of the next data set is T2, Broad substrate specificity ATP-binding cassette transporter ABCG2 (Homo sapiens, UniProt Q9UNQ0).
T2 sequence (Q9UNQ0 whole entry): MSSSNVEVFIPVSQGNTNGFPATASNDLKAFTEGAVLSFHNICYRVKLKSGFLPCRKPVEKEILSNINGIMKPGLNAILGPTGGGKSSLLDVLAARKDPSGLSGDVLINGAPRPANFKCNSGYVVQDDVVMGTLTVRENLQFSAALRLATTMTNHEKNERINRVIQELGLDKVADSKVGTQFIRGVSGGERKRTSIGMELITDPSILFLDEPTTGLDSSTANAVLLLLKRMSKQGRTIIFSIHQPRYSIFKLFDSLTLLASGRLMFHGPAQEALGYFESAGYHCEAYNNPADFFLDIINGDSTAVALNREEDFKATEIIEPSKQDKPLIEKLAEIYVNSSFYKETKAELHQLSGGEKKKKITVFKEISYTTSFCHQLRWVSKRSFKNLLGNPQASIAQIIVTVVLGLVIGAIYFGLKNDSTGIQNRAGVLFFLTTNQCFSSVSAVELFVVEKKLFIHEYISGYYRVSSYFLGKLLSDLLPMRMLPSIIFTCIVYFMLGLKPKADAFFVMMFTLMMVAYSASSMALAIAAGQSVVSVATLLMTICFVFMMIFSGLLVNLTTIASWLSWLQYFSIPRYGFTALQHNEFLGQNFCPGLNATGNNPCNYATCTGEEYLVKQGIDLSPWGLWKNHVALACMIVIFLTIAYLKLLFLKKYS
As to the kind of experiment: Inhibition of BCRP in human MCF-7 FLV1000 cells assessed as increase of mitoxantrone-induced cytotoxicity at 200 nM after 72 hrs by SRB assay relative to control. To be noted: 0.2 µM. It counts as cell-based.
Take `COc1cc2c(cc1OC)CN(CCc1ccc(NC(=O)c3cc(OC)c(OC)cc3NC(=O)c3cnc4ccccc4c3)cc1)CC2` [TARIQUIDAR]: the “fold change (FC)” value is listed as 3.7.

In a further data set the test system is HepG2. Description: Potentiation of doxorubicin-induced cytotoxicity against human HepG2 cells at 200 nM after 72 hrs by SRB assay relative to control. The format is functional.
Details: not given
With `COc1cc2c(cc1OC)CN(CCc1ccc(NC(=O)c3cc(OC)c(OC)cc3NC(=O)c3cnc4ccccc4c3)cc1)CC2` [TARIQUIDAR], the “fold change (FC)” value stood at 0.23.

Another data set addresses T1, ATP-dependent translocase ABCB1. Description: Inhibition of p-glycoprotein in human HepG2 cells assessed as increase of doxorubicin-induced cytotoxicity at 200 nM after 72 hrs by SRB assay relative to control. It counts as cell-based. To be noted: hepg2, 72 h, 0.2 µM.
In the case of `COc1cc2c(cc1OC)CN(CCc1ccc(NC(=O)c3cc(OC)c(OC)cc3NC(=O)c3cnc4ccccc4c3)cc1)CC2` [TARIQUIDAR], the “fold change (FC)” value was 0.32.

Another data set has as its system SW-620. As to the kind of experiment: Potentiation of doxorubicin-induced cytotoxicity against human SW620 cells at 200 nM after 72 hrs by SRB assay relative to control. The format is functional.
Details: not given
Turning to `COc1cc2c(cc1OC)CN(CCc1ccc(NC(=O)c3cc(OC)c(OC)cc3NC(=O)c3cnc4ccccc4c3)cc1)CC2` [TARIQUIDAR], the “fold change (FC)” value is on record as 0.57.

In another data set the target is T1, ATP-dependent translocase ABCB1. As to the kind of experiment: Inhibition of p-glycoprotein in human SW620/AD300 cells assessed as increase of doxorubicin-induced cytotoxicity at 200 nM after 72 hrs by SRB assay relative to control. To be noted: sw-620, 72 h, 0.2 µM. The format is cell-based.
As to `COc1cc2c(cc1OC)CN(CCc1ccc(NC(=O)c3cc(OC)c(OC)cc3NC(=O)c3cnc4ccccc4c3)cc1)CC2` [TARIQUIDAR], the “fold change (FC)” value was found to be 1.85.

Another data set deals with SW-620. As to the kind of experiment: Cytotoxicity against human SW620 cells at 200 nM after 72 hrs by SRB assay. The format is cell-based. To be noted: sw-620, 72 h, 0.2 µM.
Turning to `COc1cc2c(cc1OC)CN(CCc1ccc(NC(=O)c3cc(OC)c(OC)cc3NC(=O)c3cnc4ccccc4c3)cc1)CC2` [TARIQUIDAR], the Activity result is listed as “Non-toxic”.

Test system in another data set: not listed separately
Description: Cytotoxicity against human SW620/AD300 cells expressing p-glycoprotein at 200 nM after 72 hrs by SRB assay. It counts as cell-based. Particulars: sw-620, 72 h, 0.2 µM.
On to `COc1cc2c(cc1OC)CN(CCc1ccc(NC(=O)c3cc(OC)c(OC)cc3NC(=O)c3cnc4ccccc4c3)cc1)CC2` [TARIQUIDAR], for which the Activity result was “Non-toxic”.

The next data set concerns HepG2. As to the kind of experiment: Cytotoxicity against human HepG2 cells at 200 nM after 72 hrs by SRB assay. The format is cell-based. Particulars: hepg2, 72 h, 0.2 µM.
With `COc1cc2c(cc1OC)CN(CCc1ccc(NC(=O)c3cc(OC)c(OC)cc3NC(=O)c3cnc4ccccc4c3)cc1)CC2` [TARIQUIDAR], the Activity entry is given as “Non-toxic”.

The next data set deals with HepG2. As to the kind of experiment: Cytotoxicity against human HepG2 cells expressing p-glycoprotein at 200 nM after 72 hrs by SRB assay. The format is cell-based. To be noted: hepg2, 72 h, 0.2 µM.
Take `COc1cc2c(cc1OC)CN(CCc1ccc(NC(=O)c3cc(OC)c(OC)cc3NC(=O)c3cnc4ccccc4c3)cc1)CC2` [TARIQUIDAR]: the Activity entry is “Non-toxic”.

A further data set concerns MCF7. Description: Cytotoxicity against human MCF7 cells at 200 nM after 72 hrs by SRB assay. The format is cell-based. To be noted: mcf7, 72 h, 0.2 µM.
`COc1cc2c(cc1OC)CN(CCc1ccc(NC(=O)c3cc(OC)c(OC)cc3NC(=O)c3cnc4ccccc4c3)cc1)CC2` [TARIQUIDAR]: the Activity entry is given as “Non-toxic”.

Test system in the next data set: not listed separately
Description: Cytotoxicity against human MCF-7 FLV1000 cells expressing BCRP at 200 nM after 72 hrs by SRB assay. The format is ADME, cell-based. Particulars: mcf-7 flv1000, 72 h, 0.2 µM.
For the compound `COc1cc2c(cc1OC)CN(CCc1ccc(NC(=O)c3cc(OC)c(OC)cc3NC(=O)c3cnc4ccccc4c3)cc1)CC2` [TARIQUIDAR], the Activity result is listed as “Non-toxic”.

Test system in the next data set: not listed separately
As to the kind of experiment: Cytotoxicity against human LCC6 cells at 200 nM after 72 hrs by SRB assay. It counts as cell-based. To be noted: lcc6, 72 h, 0.2 µM.
Consider `COc1cc2c(cc1OC)CN(CCc1ccc(NC(=O)c3cc(OC)c(OC)cc3NC(=O)c3cnc4ccccc4c3)cc1)CC2` [TARIQUIDAR], for which the Activity result is reported as “Non-toxic”.

Test system in another data set: not listed separately
Description: Cytotoxicity against human LCC6 cells expressing p-glycoprotein at 200 nM after 72 hrs by SRB assay. It counts as cell-based. Particulars: lcc6, 72 h, 0.2 µM.
`COc1cc2c(cc1OC)CN(CCc1ccc(NC(=O)c3cc(OC)c(OC)cc3NC(=O)c3cnc4ccccc4c3)cc1)CC2` [TARIQUIDAR]: the Activity entry is “Non-toxic”.
